# From PubChem BioAssay AID602184 (Broad Institute, 2012)
# The source made the active and inactive calls.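 Rule for the calls: active = compounds whose fitted half-effect growth-inhibition concentration is no more than twice their top tested dose; inconclusive = flat curve showing moderate inhibition, or an unreliable curve fit; inactive = the rest.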
# How the values were obtained:
# [1] = S. cerevisiae growth inhibition on glycerol, dose response, glycerol medium, OD600, dry powder (AID 602184); conditions: S. cerevisiae growth in glycerol medium, OD600, 48 h
# [2] = tested on: S. cerevisiae growth in glycerol medium, OD600, 48 h; test: as above
Structure (SMILES),AC50 [2] [µM],other results
COc1ccc(-c2nnc(NC(=O)c3ccc(S(=O)(=O)N4CCCc5ccccc54)cc3)o2)cc1,,"activity change, negative = growth inhibition ([1]; at 19.5 µM (top of the series)): -22.8% (inactive)"
Oc1c(CN2CCc3ccccc3C2)cc(Cl)c2cccnc12,8.17,
NC(=O)c1cccc(C(=O)Nc2nc(-c3ccc4c(c3)CCCC4)cs2)c1,,"activity change, negative = growth inhibition ([1]; at 19.5 µM (top of the series)): -13.9% (inactive)"
Oc1c(CN2CCN(c3ccccc3)CC2)cc(Cl)c2cccnc12,,"activity change, negative = growth inhibition ([1]; at 23.5 µM (top of the series)): -52.9% (inactive)"
O=C(Nc1nc(-c2ccccn2)cs1)c1ccc(Br)s1,1.01,
O=C(Nc1nc(-c2ccccc2)cs1)c1ccc(Br)s1,,"activity change, negative = growth inhibition ([1]; at 19.5 µM (top of the series)): -11.7% (inactive)"
O=C(Nc1nc(-c2ccccn2)cs1)c1ccc(Cl)s1,1.55,
O=C(Nc1nnc(-c2ccc3c(c2)CCCC3)o1)c1ccc(Cl)cc1Cl,14.8,
CCOC(=O)N1C(=O)C2(CCCCC2)N(c2ccc(C)cc2)C1=S,< 0.08,
O=C(Oc1c(Cl)cc(Cl)c2cccnc12)c1ccco1,0.64,
O=C(Nc1nnc(-c2ccc3c(c2)CCCC3)o1)c1ccccc1,16.1,
Cc1ccc(C(=O)Nc2nc(-c3ccccn3)cs2)cc1,6.34,
C/C(=N\NC(=O)c1cc2ccccc2cc1O)c1ccccn1,14.4,
C=CCNC(=S)N/N=C(\C)c1ccccn1,8.88,
CN1CCN(C(c2ccc(C(F)(F)F)cc2)c2ccc3cccnc3c2O)CC1 (centres undefined),3.1,
Oc1c(C(c2ccccc2Cl)N2CCCCC2)ccc2cccnc12 (centres undefined),21.8,
Cc1ccc(-c2nc3c(Cl)cc(Cl)cc3c(=O)n2O)cc1,3.71,
Oc1c(C(c2ccc(Cl)cc2)N2CCCC2)ccc2cccnc12 (centres undefined),,"activity change, negative = growth inhibition ([1]; at 19.5 µM (top of the series)): -8.5% (inactive)"
O=C(Nc1nc(-c2ccccn2)cs1)c1ccccc1,18.9,
Cc1ccc(C(=O)Nc2nnc(-c3ccccc3)o2)cc1C,,"activity change, negative = growth inhibition ([1]; at 19.5 µM (top of the series)): -3.03% (inactive)"
CCCC(=O)NC(c1cccs1)c1cc(Cl)c2cccnc2c1O (centres undefined),10.6,
O=C(Nc1nc(-c2ccc3c(c2)CCCC3)cs1)c1ccccc1,,"activity change, negative = growth inhibition ([1]; at 19.5 µM (top of the series)): -4.76% (inactive)"
Cc1cc(C)n(-c2nc3ccccc3c(=O)n2OCC#N)n1,,"activity change, negative = growth inhibition ([1]; at 19.5 µM (top of the series)): -14.8% (inactive)"
O=C(NNC(=S)Nc1ccc(Cl)c(Cl)c1)c1ccccn1,12.7,
